Experimental data taken from patent US7081481B2, “Excitatory amino acid receptor modulators” (Eli Lilly and Company, priority 2000, dated 2006).

Target: T1, mGluR^2 (Homo sapiens, UniProt Q14416)
T1 construct: expressed in transfected cells
Assay: [3H] LY341495 binding displacement at mGluR2
Conditions: cells expressing human mGluR subtypes, radioligand [3H] LY341495, read-out: Ki, reversal of [3H] LY341495 binding
Text: (D. D. Schoepp, et al., Neuropharmacol., 1996, 35, 1661–1672 and 1997, 36, 1–11).
(LY341495 is described in Ornstein et al., J. Med. Chem., 1998, 41, 346–357 and J. Med. Chem., 1998, 41, 358 to 378).

T1 sequence (Q14416 19-872): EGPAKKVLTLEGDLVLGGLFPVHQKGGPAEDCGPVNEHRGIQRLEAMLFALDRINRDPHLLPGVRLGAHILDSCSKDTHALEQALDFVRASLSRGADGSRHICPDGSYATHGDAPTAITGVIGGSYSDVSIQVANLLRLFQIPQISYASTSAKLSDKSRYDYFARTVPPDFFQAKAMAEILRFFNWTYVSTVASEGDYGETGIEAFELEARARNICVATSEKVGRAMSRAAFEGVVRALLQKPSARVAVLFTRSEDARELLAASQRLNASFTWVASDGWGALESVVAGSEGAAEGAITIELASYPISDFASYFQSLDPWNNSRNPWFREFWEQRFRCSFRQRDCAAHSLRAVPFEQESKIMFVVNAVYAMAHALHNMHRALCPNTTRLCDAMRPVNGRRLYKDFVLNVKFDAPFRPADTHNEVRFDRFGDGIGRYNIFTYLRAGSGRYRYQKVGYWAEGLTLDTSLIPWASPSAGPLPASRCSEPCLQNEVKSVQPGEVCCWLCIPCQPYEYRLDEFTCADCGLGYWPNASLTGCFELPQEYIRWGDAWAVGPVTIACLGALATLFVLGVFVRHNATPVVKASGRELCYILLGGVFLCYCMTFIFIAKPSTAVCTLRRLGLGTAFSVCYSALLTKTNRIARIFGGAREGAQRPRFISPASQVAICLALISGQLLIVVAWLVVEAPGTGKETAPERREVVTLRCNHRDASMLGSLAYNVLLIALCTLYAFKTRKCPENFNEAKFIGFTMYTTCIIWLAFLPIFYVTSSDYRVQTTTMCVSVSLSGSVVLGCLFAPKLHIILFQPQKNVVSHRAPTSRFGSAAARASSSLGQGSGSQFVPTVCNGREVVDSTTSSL

Work on `N[C@@H](C(=O)O)[C@@H]1[C@H](COC(=O)Nc2ccccc2)[C@H]1C(=O)O` (racemic) [Example 1, (2SR,1′SR,2′RS,3′RS)-2-(3′-phenylcarbamoyloxymethyl-2′-carboxycyclopropyl)glycine] yielded a Ki of 285 nM.
